Laboratory results: patent US9533986B2, “Bicyclic dihydropyridone kinase inhibitors” (PORTOLA PHARMACEUTICALS, INC., priority 2012, dated 2017)

Biological target: T1, full length active recombinant SYK enzyme (Homo sapiens, UniProt P43405)
T1 construct: full length active recombinant SYK enzyme (Millipore, Calif.); purchased Millipore
Test: Inhibition of Syk tyrosine phosphorylation activity (LANCE TR-FRET kinase assay)
Assay type: biochemical
Conditions: 1 nM active SYK enzyme, 550 nM SYK-substrate, 100 μM ATP, 1 hour at room temperature
Protocol: The in vitro and in vivo human JAK/Syk activities of the inventive compounds can be determined by various procedures known in the art, such as a test for their ability to inhibit the activity of human plasma JAK/Syk. […] The IC50 value is the concentration of the compound required to provide 50% inhibition of human JAK/Syk proteolytic activity.
An in vitro assay for detecting and measuring inhibition activity against Syk is as follows.
SYK tyrosine phosphorylation activity is measured using the LANCE™ Technology developed by Perkin Elmer Life and Analytical Sciences (Boston, Mass.). LANCE™ refers to homogeneous time resolved fluorometry applications using techniques such as time-resolved fluorescence resonance energy transfer assay (TR-FRET) (see generally for procedures in Perkin Elmer Application Note—How to Optimize a Tyrosine Kinase Assay Using Time Resolved Fluorescence-Based LANCE Detection, wwww.perkinelmer.com/lifesciences). The assay principle involves detection of a phosphorylated substrate using energy transfer from a phosphospecific europium-labeled antibody to streptavidin-allophycocyanin as an acceptor.
Molecules are reconstituted in 30% DMSO and serially diluted 1:3 with the final dilution containing DMSO in the absence of the candidate molecule. The final DMSO concentration in the assay is 3%. Kinase assays are performed as a two part reaction. The first reaction is a kinase reaction which comprises a candidate molecule, full length active recombinant SYK enzyme (Millipore, Calif.), and biotin-DEEDYESP-OH, a biotin-labeled SYK-specific substrate. The second reaction involves termination of the kinase reaction and the simultaneous addition of the detection reagents—europium-labeled anti-phosphotyrosine reagent (Eu-W1024-PY100, Perkin Elmer, Boston, Mass.) and Streptavidin-Allophycocyanin detection reagent (SA-APC, Prozyme, CA). The kinase reaction is performed in a black U-bottom 96-well microtitre plate. The final reaction volume is 50 μL and contains a final concentration of 1 nM active SYK enzyme, 550 nM SYK-substrate, and 100 μM ATP diluted in a buffer containing 50 mM Tris pH 7.5, 5 mM MgCl2, and 1 mM DTT. The reaction is allowed to proceed for 1 hour at room temperature. The quench buffer contains 100 mM Tris pH 7.5, 300 mM NaCl2, 20 mM EDTA, 0.02% Brij35, and 0.5% BSA. […] Detection of the phosphorylated substrate in the absence and presence of inhibitors is measured in the TR-FRET instrument, Analyst HT (Molecular Probes, Sunnyvale, Calif.) and the condition for measurements are set using CriterionHost Release 2.0 (Molecular Probes, Sunnyvale, Calif.). […] Inhibition of SYK-tyrosine kinase activity is calculated as the maximum response observed in the presence of inhibitor, compared to that in the absence of inhibitor. […]

| IC50 [nM] | Structure (SMILES) |
| --- | --- |
| ≤ 100 | Cc1cccc(Nc2nc(N[C@@H]3CCCC[C@@H]3N)nc3c2C(=O)NCC3)c1 [Example 1, 2-(((1R,2S)-2-aminocyclohexyl)amino)-4-(m-tolylamino)-7,8-dihydropyrido[4,3-d]pyrimidin-5(6H)-one] |
| ≤ 250 | N[C@H]1CCCC[C@H]1Nc1nc2c(c(Nc3cccc(-c4ncccn4)c3)n1)C(=O)NCC2 [Example 4, 2-(((1R,2S)-2-aminocyclohexyl)amino)-4-((3-(pyrimidin-2-yl)phenyl)amino)-7,8-dihydropyrido[4,3-d]pyrimidin-5(6H)-one] |
| ≤ 100 | N[C@H]1CCCC[C@H]1Nc1nc2c(c(Nc3cccc(-n4nccn4)c3)n1)C(=O)NCC2 [Example 6, 4-((3-(2H-1,2,3-triazol-2-yl)phenyl)amino)-2-(((1R,2S)-2-aminocyclohexyl)amino)-7,8-dihydropyrido[4,3-d]pyrimidin-5(6H)-one] |
| > 250 | COc1ccc(Nc2nc(N[C@@H]3CCCC[C@@H]3N)nc3c2C(=O)NCC3)cc1C(F)(F)F [Example 7, 2-(((1R,2S)-2-aminocyclohexyl)amino)-4-((4-methoxy-3-(trifluoromethyl)phenyl)amino)-7,8-dihydropyrido[4,3-d]pyrimidin-5(6H)-one] |
